# Where a SMILES comes first, the peptide text is derived from it. [ ]: non-standard residue; d: D form. Aoe = N[C@@H](CCCCCC(=O)[C@@H]1CO1)C(=O)O
# Key:
# [1] = target: T1, interaction of LCoR and ERα (Homo sapiens, UniProt P03372); assay: BRET assay of LCoR-ERα interaction in living COS-7 cells; type: cell-based; conditions: 10^−7M ligand, COS-7 cells cotransfected with ERα-EYFP and LCoR-rluc
# T1 construct: expressed in transfected cells; host or cells: COS-7
# T1 sequence (P03372 1-595): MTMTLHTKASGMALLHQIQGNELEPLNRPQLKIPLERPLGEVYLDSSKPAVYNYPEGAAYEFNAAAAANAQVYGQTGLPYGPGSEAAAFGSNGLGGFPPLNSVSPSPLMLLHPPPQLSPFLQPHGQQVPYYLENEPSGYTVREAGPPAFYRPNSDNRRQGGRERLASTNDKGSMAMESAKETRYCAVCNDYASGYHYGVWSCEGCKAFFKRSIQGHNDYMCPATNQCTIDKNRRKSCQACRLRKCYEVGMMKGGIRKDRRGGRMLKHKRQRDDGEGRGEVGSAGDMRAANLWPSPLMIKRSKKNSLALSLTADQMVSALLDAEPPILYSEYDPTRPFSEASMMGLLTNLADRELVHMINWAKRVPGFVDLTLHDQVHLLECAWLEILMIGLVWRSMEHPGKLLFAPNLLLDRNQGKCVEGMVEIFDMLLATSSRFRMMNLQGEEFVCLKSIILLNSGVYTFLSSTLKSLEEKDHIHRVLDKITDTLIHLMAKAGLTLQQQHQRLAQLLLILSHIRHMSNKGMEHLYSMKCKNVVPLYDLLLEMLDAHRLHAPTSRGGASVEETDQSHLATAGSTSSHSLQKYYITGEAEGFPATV
# Method: Readings were started immediately after coelenterazine H addition, and 10 repeated measures were taken.
# Interaction of ERα and LCoR in vivo was further tested by bioluminescence resonance energy transfer (BRET) in living COS-7 cells transiently cotransfected with plasmids expressing ERα-EYFP and LCoR-rluc fusion proteins. […] BRET ratios were calculated as described in experimental procedures.
# [2] = target: T2, ERα LBD (Homo sapiens, UniProt P03372); assay: GST pull-down of in vitro translated LCoR with GST-ERα LBD; type: binding; conditions: ligand added to 10^−6 M
# T2 construct: the ERα LBD fused to GST (GST-ERα-LBD); made in house; LCoR by in vitro translation
# T2 sequence (P03372 311-547 limits assumed): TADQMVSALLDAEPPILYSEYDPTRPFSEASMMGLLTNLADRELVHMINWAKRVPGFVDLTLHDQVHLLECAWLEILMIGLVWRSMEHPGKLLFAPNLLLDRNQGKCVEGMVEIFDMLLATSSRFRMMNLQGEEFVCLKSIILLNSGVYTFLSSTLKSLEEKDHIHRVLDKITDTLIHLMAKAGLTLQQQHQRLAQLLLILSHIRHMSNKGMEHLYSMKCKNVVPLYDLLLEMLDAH
# [3] = target: T3, CtBP1 (Homo sapiens, UniProt Q13363); assay: GST pull-down of in vitro translated CtBP1 with GST-LCoR; type: binding
# T3 construct: made in house; host or cells: CtBP1 by in vitro translation
# Method: GST pull-down assays were performed as described (Eng, F.C.S. et al. (1998) J. Biol. Chem., 273, 28371-7), with the exception that assays performed with in vitro translated ER378 included two more washes made with the GST buffer containing 150 mM NaCl. For immunoprecipitations of tagged proteins, COS-7 cells in 100 mm dishes were transfected with 6 μg of HA-LCOR and/or 6 μg of HA-Flag-HDAC6 or with 6 μg of Flag-LCoR and/or 6 μg of HA-HDAC3 and pSG5 carrier. 48 h after transfection, cells were lysed 30 min at […] in 1 ml of JLB (20 mM Tris-HCl, pH8, 150 mM KCl, 10% glycerol, 0.1% IGEPAL CA-630, and complete protease inhibitor cocktail; Boehringer-Mannheim, Laval, Qc). Cell debris were pelleted by centrifugation (14,000 rpm, 5 min), and proteins immunoprecipitated from 600 μl of supernatant by incubation for 1 h at 4° C. with 4 μg of α-Flag M2 antibody or polyclonal anti-HDAC3, followed by overnight incubation with protein A+G agarose or protein-A agarose beads for anti-Flag, and anti-HDAC3, respectively. Beads were washed (3×) with JLB. Bound immunocomplexes were boiled in Laemmli buffer, separated by 10% SDS/PAGE, and blotted on PVDF membrane with α-Flag M2-peroxidase, α-HDAC3, α-HA-peroxidase (1:500), and detected by enhanced chemiluminescence (NEN Life Science Products, Boston, Mass.). […]
# [4] = system: HDAC6; assay: ERα-dependent CAT reporter with LCoR and HDAC6 cotransfection in MCF-7 cells; type: cell-based, human; conditions: estradiol 10 nM, TSA 500 nM, trapoxin 50 nM
# Method: All cells were cultured under the recommended conditions. For immunocytochemistry, COS-7 cells grown on collagen IV-treated microscope slides in 6-well plates in DMEM, supplemented with 10% FBS were transfected in medium without serum with 12.5 μl of lipofectamine 2000 (Invitrogen, Burlington, Ont.) containing 1 μg each of pSG5/LCoR and HA-Flag-HDAC6/pcDNA3. Medium was replaced 24 h after transfection and cells were prepared for immunocytochemistry after 48 h as described below. For immunoprecipitation of tagged proteins, MCF-7 cells in 100 mm dishes were transfected with 10 μl of lipofectamine containing 10 μg of pSG5 vectors containing Flag-LCoR, Flag-m1, Flag-m2 or Flag-m1+2. For analysis of the effects of HDACs 3 or 6 on LCoR corepression, COS-7 cells (60-70% confluent) grown in DMEM without phenol red, supplemented with 10% FBS on 6-well plates were transfected in medium without serum with lipofectamine 2000 (Invitrogen, Burlington, Ontario, Canada) with 100 ng of ERα expression vectors as indicated, 300 ng of LCoR/pSG5, 300 ng of HA-HDAC3/pCDNA3.1 or […], 250 ng of ERE3-TATA-CAT reporter plasmid, 250 ng of internal control vector pCMV-βgal, and pBluescript carrier DNA to 4 μg. Medium was replaced 18 hr after transfection by a medium containing charcoal-stripped serum and ligand (10 nM) for 30 hr, as indicated. […]
compound,measurement,setting,value
4-hydroxytamoxifen,effect on BRET ratio,[1],no significant effect
same,induction of interaction of LCoR with ERα,[2],did not induce interaction
NC(=O)C1=CN([C@@H]2O[C@H](COP(=O)(O)OP(=O)(O)OC[C@H]3O[C@@H](n4cnc5c(N)ncnc54)[C@H](O)[C@@H]3O)[C@@H](O)[C@H]2O)C=CC1 [NADH],effect on interaction of CtBP1 with LCoR in vitro,[3],no effect
O=C1N[C@@H](Cc2ccccc2)C(=O)N2CCC[C@@H]2C(=O)N[C@@H](CCCCCC(=O)[C@@H]2CO2)C(=O)N[C@H]1Cc1ccccc1 [trapoxin] (cyclo(FF[dP][Aoe])),effect on HDAC6 repression / enhancement of LCoR corepression of ERα transactivation,[4],not

# From patent publication US20070054353A1, “Nuclear receptor transcriptional corepressor and uses thereof” (priority 2002, published 2007)
